# Data from article PMC9706280 (Journal of Pesticide Science, 2022).
# Molecular target: succinate dehydrogenase (SDH) (Botrytis cinerea, UniProt A0A384J5E4+A0A384J8V8+A0A384JHJ5)
# Experiment: SDH assay kit on B. cinerea mitochondrial suspension, absorbance at […] nm
# Format: biochemical
# Conditions: read-out: IC50 / μM
# succinate dehydrogenase (SDH), sequence (A0A384J5E4 31-300): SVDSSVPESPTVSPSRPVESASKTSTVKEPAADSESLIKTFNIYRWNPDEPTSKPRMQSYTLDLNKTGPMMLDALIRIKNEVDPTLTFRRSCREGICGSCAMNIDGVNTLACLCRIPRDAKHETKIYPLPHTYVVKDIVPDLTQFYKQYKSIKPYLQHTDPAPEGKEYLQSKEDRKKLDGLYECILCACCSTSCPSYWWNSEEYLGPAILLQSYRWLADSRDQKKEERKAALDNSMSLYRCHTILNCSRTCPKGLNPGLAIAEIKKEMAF
# succinate dehydrogenase (SDH), sequence (A0A384J8V8 41-189): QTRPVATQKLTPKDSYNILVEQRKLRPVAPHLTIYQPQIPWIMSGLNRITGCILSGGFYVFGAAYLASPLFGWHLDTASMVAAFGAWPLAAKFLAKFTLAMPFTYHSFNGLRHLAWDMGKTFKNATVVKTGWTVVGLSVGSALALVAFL
# succinate dehydrogenase (SDH), sequence (A0A384JHJ5 55-192): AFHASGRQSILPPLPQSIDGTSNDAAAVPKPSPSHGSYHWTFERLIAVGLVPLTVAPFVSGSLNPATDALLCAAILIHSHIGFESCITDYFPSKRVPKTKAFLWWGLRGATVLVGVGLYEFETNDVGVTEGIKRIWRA
# succinate dehydrogenase (SDH), sequence (A0A384K456 41-647 partner): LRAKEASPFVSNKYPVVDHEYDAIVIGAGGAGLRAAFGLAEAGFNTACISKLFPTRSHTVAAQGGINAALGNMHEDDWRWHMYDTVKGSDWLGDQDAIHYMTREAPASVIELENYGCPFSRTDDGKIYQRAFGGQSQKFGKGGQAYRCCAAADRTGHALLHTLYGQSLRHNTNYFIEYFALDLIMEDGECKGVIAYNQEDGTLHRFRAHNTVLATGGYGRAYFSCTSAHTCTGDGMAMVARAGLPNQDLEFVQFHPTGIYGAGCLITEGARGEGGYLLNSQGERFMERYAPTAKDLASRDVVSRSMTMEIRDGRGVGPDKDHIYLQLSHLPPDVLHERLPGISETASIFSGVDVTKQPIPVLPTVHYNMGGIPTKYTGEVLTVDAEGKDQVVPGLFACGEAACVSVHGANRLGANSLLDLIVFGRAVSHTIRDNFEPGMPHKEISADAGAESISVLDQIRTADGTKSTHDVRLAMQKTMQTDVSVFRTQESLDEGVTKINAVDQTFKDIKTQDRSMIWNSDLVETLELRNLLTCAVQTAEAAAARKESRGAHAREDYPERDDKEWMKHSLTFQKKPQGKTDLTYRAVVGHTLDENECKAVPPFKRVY
row,IC50 [µM],SMILES
1,14.4,Cc1nc(C(F)(F)F)c(C(=O)Nc2c(Br)cc(OC(F)(F)F)cc2Br)s1 [thifluzamide]
2,17.3,"O=C(Nc1ccccc1Nc1ccccc1)c1ccc(Cl)nc1 [3f, 6-chloro-N-(2-(phenylamino)phenyl)nicotinamide]"
